Reference: PMC3367138, “Selective inhibitors of cardiac ADPR cyclase as novel anti-arrhythmic compounds” (Naunyn-Schmiedeberg's Archives of Pharmacology, 2012)

Biological target: T1, adenosine A2A receptor (Homo sapiens, UniProt P29274)
T1 construct: gene ADORA2A
Experiment: radioligand displacement (agonist radioligand), single concentration […] in duplicate; […] of control remaining ([…] inhibition)
Format: binding

T1 sequence (P29274 whole entry): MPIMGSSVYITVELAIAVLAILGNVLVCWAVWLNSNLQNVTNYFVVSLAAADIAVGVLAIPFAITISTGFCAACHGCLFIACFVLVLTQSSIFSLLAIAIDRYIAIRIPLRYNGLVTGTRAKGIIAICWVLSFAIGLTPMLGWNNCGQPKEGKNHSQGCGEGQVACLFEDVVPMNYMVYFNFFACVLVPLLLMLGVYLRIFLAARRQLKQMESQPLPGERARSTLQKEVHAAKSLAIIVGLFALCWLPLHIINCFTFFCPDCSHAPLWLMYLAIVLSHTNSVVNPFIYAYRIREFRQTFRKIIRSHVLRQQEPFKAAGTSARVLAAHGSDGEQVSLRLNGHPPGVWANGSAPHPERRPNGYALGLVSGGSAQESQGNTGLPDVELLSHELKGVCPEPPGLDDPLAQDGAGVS

Cc1nn(Cc2cccc(C(=O)O)c2)c2nc(-c3ccncc3)[nH]c(=O)c12 [SAN4825]
inhibition at 10 µM: 81%
